The subject of series [1] is human mesenchymal stem cells (hMSCs). Description: Cytocompatibility, WST-1 cell metabolic activity assay. Type of series: cell-based. The settings on record: for cytocompatibility / tolerance: fragments particularly if the acidity was neutralized. The protocol:
Human mesenchymal stem cells, hMSCs, were obtained from Lonza (Basel, Switzerland) and cultured in MSC growth medium (MSCGM) with 5% fetal bovine serum, 2% L-glutamine and 0.1% penicillin-streptomycin (Lonza). The cell metabolic activity was measured with the Cell Proliferation Reagent WST-1 assay (Roche Diagnostics, Mannheim, Germany). Briefly, 5000 hMSC cells were seeded in each well and media containing the sample was added to the desired concentration (n=6). After incubation for 72 hours at 37° C., the media was aspirated and media containing 10% WST-1 reagent added for 2 hours. The absorbance at 450 nm was measured subtracting the absorbance at 600 nm. The absorbance readings were further normalized against cells cultured in media containing an equivalent volume of PBS (i.e. 100% cell survival) to determine the percentage cell viability. Cells cultured with an equivalent volume of ethanol were used as a negative control (i.e. 100% cell death).
In order to determine depsipeptide cytotoxicity and effect on cell proliferation, human mesenchymal stem cells (hMSCs) were incubated with various concentrations of the depsipeptide and their metabolic activity and viability was tested after 3 days. Cell viability decreased with increasing depsipeptide concentration. […] To address concerns that the cytotoxicity could be attributed to the degradation products following hydrolysis of the ester bond, the possible degradation products, the peptide Ac-ILV and depsipeptide HO-aGK-NH2, were also evaluated.

Series [2] is described as follows: Minimum gelation concentration / hydrogel formation. Type of series: physicochemical. The protocol:
In order to determine the minimum gelation concentration in water, the depsipeptide was dissolved in MilliQ water.
Liskamp reported depsipetides based on the amylin (20-29) structure.

The conditions of series [3]: 2 mg/mL in PBS. The procedure:
In order to test the degradation ability of the depsipeptide, 2 mg/mL was dissolved in PBS puffer at pH 5.7, 7.3 and 8.5. All samples were incubated at 37° C. and analysed by HPLC-MS.
In order to characterize the degradation products of the depsipeptide Ac-ILV-OH and HO-aGK-NH2 were synthesized and the retention time was determined by HPLC-MS.

[4] abbreviates: MilliQ water, depsipeptide sample left at room temperature.

Like-named read-outs stand apart in the source and are kept apart here. Where a SMILES comes first, the peptide text is derived from it.

As for `CC[C@H](C)[C@H](NC(C)=O)C(=O)N[C@@H](CC(C)C)C(=O)N[C@H](C(=O)O)C(C)C` [Ac-ILV] (Ac-Ile-Leu-Val-OH), the cytocompatibility / tolerance result in series [1] (3 days) is “extremely well tolerated”.

As for `CC[C@H](C)[C@H](NC(C)=O)C(=O)N[C@@H](CC(C)C)C(=O)N[C@H](C(=O)OC(C)C(=O)NCC(=O)N[C@@H](CCCCN)C(N)=O)C(C)C` (some centres unmarked) [Ac-ILVaGK-NH2, Acetylated isoleucine-leucine-valine-lactic acid-glycine-lysine] (HELM PEPTIDE1{[ac].I.L.V.[CC(O[*:1])C(=O)[*:2]].G.K.[am]}$$$$V2.0), in series [2] (100 mg/mL dissolved in 90% water, 10% 10xPBS added), the hydrogel formation entry was “instantaneous hydrogel formation”. Moreover, the minimum gelation concentration came out at 100 mg/mL in series [2] (setting [4]) and 60 mg/mL in series [2] (with PBS buffer added (1x PBS)). In series [2] (in water as well as in 1xPBS buffer), the “minimum gelation concentration relative to parent peptide Ac-IK6-NH2” value is given as “about 10 times”. Further, in series [1] (3 days (72 hours) incubation, WST-1), the “IC50 (cell viability)” value is “approximately 15 mg/mL”. Besides, the “stability (degradation)” value is “most” in series [3] (pH 5.7, 37° C., compared with pH 7.3 and 8.5); “least stable” in series [3] (pH 8.5, 37° C., compared with pH 5.7 and 7.3).

Consider `CC(O)C(=O)NCC(=O)N[C@@H](CCCCN)C(N)=O` (some centres unmarked) [HO-aGK-NH2] (HELM PEPTIDE1{[CC(O)C(=O)[*:2]].G.K.[am]}$$$$V2.0), for which, in series [1] (3 days, WST-1), the “concentration at which significant cytotoxicity was demonstrated” value is more than 10000 µg/mL. Also, the cytocompatibility / tolerance entry in series [1] (3 days) is reported as “extremely well tolerated”.

Take “Ac-IK6-NH2: parent ultrashort self-assembling peptide Ac-ILVAGK-NH2, without α-hydroxy acid [reference compound]”: the minimum gelation concentration in series [2] (setting [4]) amounted to 10 mg/mL.
